Source: ChEMBL document CHEMBL3217435, “Unfolded and macrocyclic ammonium derivatives of diterpenoids steviol and isosteviol having choline moieties. Synthesis and inhibitory activities toward acetylcholine- and butyrylcholinesterases” (Medchemcomm, 2012)

Assays:
Acetylcholinesterase = Acetylcholinesterase (Homo sapiens, UniProt P22303); assay: Inhibition of human erythrocyte AChE using acetylthiocholine iodide as substrate by visible spectrophotometry
Cholinesterase = Cholinesterase (Homo sapiens, UniProt P06276); assay: Inhibition of human serum BChE using butyrylthiocholine iodide as substrate by visible spectrophotometry
Cholinesterase, sequence (P06276 whole entry): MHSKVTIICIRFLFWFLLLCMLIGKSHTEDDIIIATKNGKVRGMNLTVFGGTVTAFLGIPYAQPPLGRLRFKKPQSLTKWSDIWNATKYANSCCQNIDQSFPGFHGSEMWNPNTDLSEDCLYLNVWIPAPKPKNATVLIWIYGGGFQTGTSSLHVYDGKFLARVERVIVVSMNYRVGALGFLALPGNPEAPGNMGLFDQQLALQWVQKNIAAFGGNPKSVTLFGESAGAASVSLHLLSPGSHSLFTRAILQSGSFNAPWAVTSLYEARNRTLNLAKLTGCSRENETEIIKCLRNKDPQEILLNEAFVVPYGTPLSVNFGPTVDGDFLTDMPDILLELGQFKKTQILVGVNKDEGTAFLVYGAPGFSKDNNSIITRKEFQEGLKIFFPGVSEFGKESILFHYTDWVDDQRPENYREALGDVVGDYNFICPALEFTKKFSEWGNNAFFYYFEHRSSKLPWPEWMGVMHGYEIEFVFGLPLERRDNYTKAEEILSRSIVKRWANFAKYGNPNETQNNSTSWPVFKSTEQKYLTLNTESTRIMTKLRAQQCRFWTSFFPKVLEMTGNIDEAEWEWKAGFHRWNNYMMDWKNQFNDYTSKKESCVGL

Acetylcholinesterase, sequence (P22303 whole entry): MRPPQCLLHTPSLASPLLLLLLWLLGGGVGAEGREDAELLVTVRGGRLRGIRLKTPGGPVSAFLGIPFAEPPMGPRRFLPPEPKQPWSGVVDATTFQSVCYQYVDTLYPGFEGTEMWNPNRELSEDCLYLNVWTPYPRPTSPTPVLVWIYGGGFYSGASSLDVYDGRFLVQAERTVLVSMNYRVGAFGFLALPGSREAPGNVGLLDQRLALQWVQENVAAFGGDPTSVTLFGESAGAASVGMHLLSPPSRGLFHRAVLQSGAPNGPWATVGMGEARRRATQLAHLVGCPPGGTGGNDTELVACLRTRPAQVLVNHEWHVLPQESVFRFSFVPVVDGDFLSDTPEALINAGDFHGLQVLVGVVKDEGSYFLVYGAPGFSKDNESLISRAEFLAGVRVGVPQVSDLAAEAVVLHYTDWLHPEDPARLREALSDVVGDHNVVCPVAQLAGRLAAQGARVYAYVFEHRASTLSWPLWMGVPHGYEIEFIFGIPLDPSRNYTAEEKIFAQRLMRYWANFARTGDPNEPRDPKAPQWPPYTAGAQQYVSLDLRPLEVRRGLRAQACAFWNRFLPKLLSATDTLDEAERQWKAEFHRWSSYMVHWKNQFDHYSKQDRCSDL

Row | SMILES | IC50 (Acetylcholinesterase) | IC50 (Cholinesterase)
1 | C[C@@]12CC[C@@H]3[C@@](CC[C@H]4[C@@]3(C)CCC[C@@]4(C)C(=O)OCC[N+](C)(C)Cc3ccccc3)(CC1=O)C2 | 30 µM | 6.7 µM
2 | C[C@H]1C[C@@]23CC[C@H]4[C@@](C)(CCC[C@@]4(C)C(=O)OCC[N+](C)(C)C)[C@@H]2CC[C@]1(Cl)C3 | 34 µM | 4.2 µM
3 | C[C@H]1C[C@@]23CC[C@H]4[C@@](C)(CCC[C@@]4(C)C(=O)OCC[N+](C)(C)Cc4ccccc4)[C@@H]2CC[C@]1(Cl)C3 | 9 µM | 1.6 µM
4 | C[C@@]12CC[C@@H]3[C@@](CC[C@H]4[C@@]3(C)CCC[C@@]4(C)C(=O)OCC[N+](C)(C)CCCCCCCCCC[N+](C)(C)CCOC(=O)[C@]3(C)CCC[C@@]4(C)[C@@H]5CC[C@@]6(C)C[C@]5(CC[C@@H]43)CC6=O)(CC1=O)C2 | 88 µM | 65 µM
5 | CC[N+](CC)(CC)CCOCCOCCOC(=O)[C@]1(C)CCC[C@@]2(C)[C@@H]3CC[C@@]4(C)C[C@]3(CC[C@@H]21)CC4=O | 80 µM | > 1000 µM
6 | C[C@@]12CC[C@@H]3[C@@](CC[C@H]4[C@@]3(C)CCC[C@@]4(C)C(=O)OCC[N+](C)(C)CCCCCCCCCCCC[N+](C)(C)CCOC(=O)[C@]3(C)CCC[C@@]4(C)[C@@H]5CC[C@@]6(C)C[C@]5(CC[C@@H]43)CC6=O)(CC1=O)C2 | 2.2 µM | 10 µM
7 | C[C@@]12CC[C@@H]3[C@@](CC[C@H]4[C@@]3(C)CCC[C@@]4(C)C(=O)OCC[N+](C)(C)C)(CC1=O)C2 | 150 µM | 30 µM
8 | C[C@@]12CC[C@@H]3[C@]4(CC[C@H]5[C@@]3(C)CCC[C@@]5(C)C(=O)OCC[N+](C)(C)CCCCCCCCC[N+](C)(C)CCOC(=O)[C@]3(C)CCC[C@@]5(C)[C@@H]6CC[C@@]7(C)C[C@]6(CC[C@@H]53)C[C@H]7OC(=O)CCCCCCCCC(=O)O[C@@H]1C4)C2 | 5 µM | 60 µM
